Columns and labels:
Type in all cases: in vivo
[1] = system: corn (Zea mays); experiment: Test A greenhouse herbicide test, pre- and postemergence; conditions: Postemergence
In short: (§1)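 Visual injury ratings, 0 (no effect) to 100 (complete control), versus untreated plants after roughly 10 d in a greenhouse. Compounds, formulated in a surfactant-containing non-phytotoxic solvent, were sprayed on loam–sand soil after sowing (pre) or on one- to two-leaf plants 2–10 cm tall (post).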

[2] = system: pigweed (Amaranthus retroflexus); experiment: as above
In short: as §1

[3] = system: wheat (Triticum aestivum); experiment: as above; conditions: Postemergence
In short: as §1

[4] = system: ragweed (common ragweed, Ambrosia elatior); experiment: as above
In short: as §1

[5] = system: ryegrass, Italian (Italian ryegrass, Lolium multiflorum); experiment: as above
In short: as §1

[6] = system: foxtail, giant (giant foxtail, Setaria faberii); experiment: as above
In short: as §1

[7] = system: kochia (Kochia scoparia); experiment: as above
In short: as §1

[8] = system: barnyardgrass (Echinochloa crus-galli); experiment: as above
In short: as §1

[9] = system: sedge, umbrella (small-flower umbrella sedge, Cyperus difformis); experiment: Test B flooded paddy test; conditions: 250 g ai/ha, Flood; visual rating on scale of 0 to 100 where 0 is no effect and 100 is complete control; 13 to 15 d after treatment
In short: (§2)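 Ratings use a 0-100 visual scale, where 100 is complete control, and compare treated plants with controls after 13 to 15 d of greenhouse growth. Compound went straight into paddy water kept 3 cm over the soil surface, applied to seedlings at the 2-leaf stage.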

[10] = system: ducksalad (Heteranthera limosa); experiment: Test B flooded paddy test; conditions: 250 g ai/ha, Flood; visual rating on scale of 0 to 100 where 0 is no effect and 100 is complete control; 13 to 15 d after treatment
In short: as §2

[11] = system: rice (Oryza sativa); experiment: Test B flooded paddy test; conditions: 250 g ai/ha, Flood; visual rating on scale of 0 to 100 where 0 is no effect and 100 is complete control; 13 to 15 d after treatment
In short: as §2

[12] = system: barnyardgrass (Echinochloa crus-galli); experiment: Test B flooded paddy test; conditions: 250 g ai/ha, Flood; visual rating on scale of 0 to 100 where 0 is no effect and 100 is complete control; 13 to 15 d after treatment
In short: as §2

[13] = system: galium (catchweed bedstraw, Galium aparine); experiment: Test A greenhouse herbicide test, postemergence
In short: (§3)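 Seedlings in a loam soil and sand mix received formulated compound postemergence at the one- to two-leaf stage. Greenhouse holding lasts approximately 10 d, then injury is scored visually relative to untreated plants, 0 meaning no effect and 100 complete control.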

[14] = system: blackgrass (Alopecurus myosuroides); experiment: Test A greenhouse herbicide test, postemergence
In short: as §3

[15] = 125 g ai/ha, 0 to 100 scale where 0 is no effect and 100 is complete control
[16] = 500 g ai/ha, visual rating after approx. 10 d, 0 to 100 scale (0 no effect, 100 complete control)
[17] = Postemergence, 125 g ai/ha, 0 to 100 scale where 0 is no effect and 100 is complete control
[18] = Postemergence, 500 g ai/ha, visual rating after approx. 10 d, 0 to 100 scale (0 no effect, 100 complete control)
[19] = Preemergence, 125 g ai/ha, 0 to 100 scale where 0 is no effect and 100 is complete control
[20] = Preemergence, 500 g ai/ha, 0 to 100 scale where 0 is no effect and 100 is complete control

| Structure (SMILES) | Plant response rating, Corn [1, 15] | Plant response rating, Corn [1, 16] | Plant response rating, Pigweed [2, 17] | Plant response rating, Pigweed [2, 18] | Pigweed plant response rating [2, 19] | Plant response rating, Pigweed [2, 20] | Plant response rating, Wheat [3, 15] | Plant response rating, Wheat [3, 16] | Plant response rating, Ragweed [4, 17] | Plant response rating, Ragweed [4, 18] | Plant response rating, Ragweed [4, 20] | Plant response rating, Ryegrass, Italian [5, 17] | Plant response rating, Ryegrass, Italian [5, 18] | Plant response rating, Ryegrass, Italian [5, 20] | Plant response rating, Foxtail, Giant [6, 17] | Plant response rating, Foxtail, Giant [6, 18] | Foxtail, Giant plant response rating [6, 19] | Plant response rating, Foxtail, Giant [6, 20] | Plant response rating, Kochia [7, 17] | Plant response rating, Kochia [7, 18] | further results |
| --- | --- | --- | --- | --- | --- | --- | --- | --- | --- | --- | --- | --- | --- | --- | --- | --- | --- | --- | --- | --- | --- |
| COc1nn(C)c(=O)c(-c2c(C)sc3ccc(Cl)cc23)c1OS(C)(=O)=O [Compound 135] | 0 | 20 | 0 | 20 | 30 | 70 | 0 | 0 | 30 | 60 | 60 | 40 | 70 | 60 | 0 | 0 | 20 | 30 | 0 | 0 | Ragweed plant response rating [4, 19]: 30; Ryegrass, Italian plant response rating [5, 19]: 20; Kochia plant response rating [7, 19]: 0; Plant response rating, Kochia [7, 20]: 0; Plant response rating, Barnyardgrass [8, 17]: 0; Plant response rating, Barnyardgrass [8, 18]: 0; Barnyardgrass plant response rating [8, 19]: 0; Plant response rating, Barnyardgrass [8, 20]: 0; Plant response rating, Sedge, Umbrella [9]: 0; Plant response rating, Ducksalad [10]: 0; Plant response rating, Rice [11]: 0; Plant response rating, Barnyardgrass [12]: 0; Plant response rating, Galium [13, 15]: 60; Plant response rating, Galium [13, 16]: 90; Plant response rating, Blackgrass [14, 15]: 0; Plant response rating, Blackgrass [14, 16]: 30 |
| CCOC(=O)Oc1c(C)nn(C)c(=O)c1-c1c(C(F)(F)F)ccc2ccccc12 [Compound 146] | 0 | 30 | 90 | 90 | 100 | 100 | 0 | 70 | 90 | 100 | 80 | 70 | 100 | 80 | 10 | 70 | 0 | 50 | 70 | 100 | Kochia plant response rating [7, 19]: 20; Plant response rating, Kochia [7, 20]: 70; Plant response rating, Barnyardgrass [8, 17]: 0; Plant response rating, Barnyardgrass [8, 18]: 30; Barnyardgrass plant response rating [8, 19]: 0; Plant response rating, Barnyardgrass [8, 20]: 50; Plant response rating, Sedge, Umbrella [9]: 0; Plant response rating, Ducksalad [10]: 0; Plant response rating, Rice [11]: 0; Plant response rating, Barnyardgrass [12]: 0; Plant response rating, Galium [13, 15]: 80; Plant response rating, Galium [13, 16]: 90; Plant response rating, Blackgrass [14, 15]: 20; Plant response rating, Blackgrass [14, 16]: 70 |
| CCC(=O)Oc1c(C)nn(C)c(=O)c1-c1c(C(F)(F)F)ccc2ccccc12 [Compound 147] | 0 | 0 | 90 | 90 | 90 | 100 | 20 | 80 | 90 | 90 | 90 | 90 | 100 | 100 | 30 | 80 | 10 | 40 | 80 | 100 | Kochia plant response rating [7, 19]: 50; Plant response rating, Kochia [7, 20]: 80; Plant response rating, Barnyardgrass [8, 17]: 10; Plant response rating, Barnyardgrass [8, 18]: 40; Barnyardgrass plant response rating [8, 19]: 30; Plant response rating, Barnyardgrass [8, 20]: 60; Plant response rating, Sedge, Umbrella [9]: 0; Plant response rating, Ducksalad [10]: 0; Plant response rating, Rice [11]: 0; Plant response rating, Barnyardgrass [12]: 0; Plant response rating, Galium [13, 15]: 90; Plant response rating, Galium [13, 16]: 100; Plant response rating, Blackgrass [14, 15]: 60; Plant response rating, Blackgrass [14, 16]: 90 |
| CC(=O)Oc1c(C)nn(C)c(=O)c1-c1c(C(F)(F)F)ccc2ccccc12 [Compound 148] | 0 | 0 | 90 | 90 | 100 | 100 | 20 | 60 | 90 | 90 | 80 | 90 | 90 | 100 | 30 | 70 | 20 | 50 | 80 | 90 | Kochia plant response rating [7, 19]: 30; Plant response rating, Kochia [7, 20]: 90; Plant response rating, Barnyardgrass [8, 17]: 10; Plant response rating, Barnyardgrass [8, 18]: 30; Barnyardgrass plant response rating [8, 19]: 10; Plant response rating, Barnyardgrass [8, 20]: 60; Plant response rating, Sedge, Umbrella [9]: 0; Plant response rating, Ducksalad [10]: 0; Plant response rating, Rice [11]: 0; Plant response rating, Barnyardgrass [12]: 0; Plant response rating, Galium [13, 15]: 90; Plant response rating, Galium [13, 16]: 90; Plant response rating, Blackgrass [14, 15]: 60; Plant response rating, Blackgrass [14, 16]: 80 |
| C#Cc1ccc2cccc(-c3c(O)c(C)nn(C)c3=O)c2c1 [Compound 150] | 0 | 0 | 40 | 80 | 80 | 100 | 0 | 20 | 0 | 30 | 30 | 40 | 90 | 70 | 0 | 30 | 0 | 30 | 40 | 70 | Kochia plant response rating [7, 19]: 0; Plant response rating, Kochia [7, 20]: 20; Plant response rating, Barnyardgrass [8, 17]: 0; Plant response rating, Barnyardgrass [8, 18]: 30; Barnyardgrass plant response rating [8, 19]: 0; Plant response rating, Barnyardgrass [8, 20]: 10; Plant response rating, Sedge, Umbrella [9]: 0; Plant response rating, Ducksalad [10]: 0; Plant response rating, Rice [11]: 0; Plant response rating, Barnyardgrass [12]: 0; Plant response rating, Galium [13, 15]: 30; Plant response rating, Galium [13, 16]: 80; Plant response rating, Blackgrass [14, 15]: 0; Plant response rating, Blackgrass [14, 16]: 50 |

Source: patent US10597388B2, “Pyridazinone herbicides” (FMC CORPORATION, priority 2014, dated 2020)
